The results in this text go back to US10874686B2, “Anthranilyl-adenosinemonosulfamate analogs and uses thereof” (Memorial Sloan-Kettering Cancer Center, priority 2015, dated 2020).

The inhibition is the change of the read-out against control, counted positive when it falls. The term IC50 denotes the concentration that gives 50% inhibition.

Read-outs that look alike come from different tables or passages of the source.

The subject of data set [1] is HHQ and PQS quinolone production in P. aeruginosa strain PA14. Kind of data set: Inhibition of HHQ and PQS quinolone production in P. aeruginosa strain PA14 (LC-MS/MS). In kind it is cell-based, Pseudomonas aeruginosa. To be noted: for inhibition at 1500 µM / inhibition at 1000 µM: Pseudomonas aeruginosa. As for the experimental part:
The production of PQS and HHQ by strain PA14 was performed in triplicate in 14-mL round bottom falcon tubes containing 3-mL cultures in LB medium. Tubes were incubated at 37° C. in an orbital shaker at 225 rpm. Cultures were inoculated with 15-hour culture in LB in order to obtain a starting OD600=0.05, with or without inhibitors added. For PQS and HHQ analysis, a 20 μl aliquot was taken at time points as indicated. Each sample was diluted with 180 μL of methanol containing the internal standard (100 μM of d^4-PQS or d^4-HHQ) and 2% acetic acid. The solution was then vertexed and centrifuged at 13,000 g for 5 minutes, and the supernatant was transferred to a 96-well plates for LC-MS/MS analysis. Bacterial growth was measured by recording OD600 at 20 h to provide the data in FIG. 7A.
Liquid chromatography tandem mass spectrometry (LC-MS/MS) was carried out on an Agilent Technologies 6410 triple quad LC-MS/MS system with autosampler in electrospray ionization (ESI) mode, with an Agilent Zorbax Eclipse XDB-C18 reverse phase column (50×4.6 mm, 5 μm) using a flow rate of 0.5 mL/minute and an isocratic mobile phase of 60% CH3CN in 0.1% aqueous formic acid over 5 minutes. Positive electrospray in MRM mode was employed to quantify PQS and HHQ, using the ion transitions HHQ 244 to 159, d^4-HHQ 248 to 163, PQS 260 to 175, and d^4-PQS 264 to 179; shown in Table E3.
PqsA inhibitors 1-5 were evaluated for their ability to inhibit HHQ and PQS quinolone production in P. aeruginosa strain PA14 (FIG. 6). HHQ and PQS concentrations were determined by LC-MS/MS quantitation relative to deuterated internal standards. 6-Fluoroanthranilate (6FABA), a substrate analogue reported previously to inhibit quinolone production at millimolar concentrations, was used as a positive control. Compounds were initially tested at 1.5 mM concentration, and HHQ and PQS were quantified at 8 and 20 hours, respectively. These time points were selected based on an initial time course study of quinolone production in the absence of inhibitors, with HHQ or PQS production peaking at these respective time points. […] This could be due to differences in cell penetration, stability, and/or target specificity. Finally, because inhibitors of the quinolone quorum sensing pathway should not impact bacterial growth, we confirmed that none of the six inhibitors above inhibited growth over 20 h (FIG. 7A). Encouraged by the ability of anthranilyl-AMS (1) and anthranilyl-AMSN (2) to inhibit HHQ and PQS quinolone production, the activity of these two inhibitors and 6FABA were investigated in greater detail. In untreated controls, HHQ and PQS production peaked at 8 and 20 hours, respectively. Previously reported time course studies have similarly shown that HHQ levels peak at 6-8 hours while PQS levels continue to rise. See, e.g., Deziel et al. (2004) Proc. Natl. Acad. Sci. U.S.A 101, 1339; Kesarwani et al. (2011) PLoS Pathog. 7, e1002192. All three inhibitors were able to decrease quinolone production in a dose- and time-dependent manner (FIG. 2A). […] Such a perturbation might still be sufficient to impact P. aeruginosa virulence in vivo. […] See, e.g., Lesic et al. (2007) PLoS Pathog. 3, e126.

Another data set concerns HepG2 cells. Nature of the data set: Cytotoxicity cell viability assay (CellTiter Glo), HepG2. To be noted: for toxicity in words, CellTiter Glo, HepG2: HepG2, luminescence readout, up to 1000 μM; for IC50: Homo sapiens, HepG2, 48 hrs, luminescence. In kind it is cell-based. The source says: Promega Cell Titer-Glo utilizes the ATP dependent conversion of Luciferin to Oxyluciferin by a recombinant Luciferase in order to quantify the number of metabolically active cells in a sample. Quantification is possible because the number of RLU's detected is linearly proportional to the amount of ATP produced by metabolically active cells in culture at the time of lysis. Therefore, the relative cytotoxicity of each compound can be tested by quantifying the amount of ATP present in each microtiter well as compared to control groups. HepG2 and MRC5 were plated at a density of 1500 cells/25 al in well in the assay plate and allowed to settle overnight. 0.1 μL of compounds was then transferred from the source plate, into the cell assay plates. The cells were left to incubate with the compounds for 48 hrs, after which, 25 μL of Promega Cell Titer-Glo was added to each well, and allowed to incubate at room temperature with shaking for 20 minutes. RLU's for each well were then recorded on a BioTek Synergy NEO. DMSO was used as negative control

For another data set, the system named is MRC5 cells. Nature of the data set: Cell health and viability image-based study (fluorescence microscopy), MRC5. To be noted: for IC50: Homo sapiens, MRC5, imaging; for toxicity in words, imaging, MRC5: up to 1000 μM. As for the experimental part: The multiparametric assay developed surveys a number of elements of cell health simultaneously. Using a combination of 2 dyes, we are able to simultaneously measure nuclear morphology, membrane integrity and cell proliferation. All measurements are made on live cells after an incubation time of 24H. Hoechst 33342 is used to measure total number of cells, nuclear morphology and cell proliferation. The nuclear impermeable dye Syto17 is used to assess the nuclear membrane integrity by measuring the nuclear translocation of the dye when the membrane gets porous after incubation with a toxic compound. Cells were plated at a density of 1500 cells/25 al in well in a 384 wells plate the day before incubation with the drugs. The following day, 0.1 al of the source plate are added to the assay plate. Then, 25 al of a fluorophores mixture containing Hoechst 33342, Syto17 diluted in EMEM was added to each well. Plates are read after 48 h incubation in the ImageXpress instrument (Molecular Devices) using the appropriate filters. Images are analyzed using an application of MetaXpress software (Molecular Devices) and data are presented using Prism software. Low Signal Control (C23): 5 μM Staurosporine; High Signal Control (C24): DMSO.

The mark [2] stands for this setting: PA14, 8 h, read-out: inhibition of HHQ production.
[3] abbreviates: PA14, 20 h, read-out: inhibition of PQS production.
Where [4] appears, read: PA14, read-out: inhibition of HHQ production.
Setting [5] is: PA14, read-out: inhibition of PQS production.
[6] abbreviates: Hoechst 33342, read-out: Cell Count IC50, MRC5.
Where [7] appears, read: Syto17, read-out: Nuclear membrane integrity IC50, MRC5.

On to `Nc1ccccc1C(=O)NS(=O)(=O)OC[C@H]1O[C@@H](n2cnc3c(N)ncnc32)[C@H](O)[C@@H]1O` [anthranilyl-AMS, Anthranilyl-AMS], for which, in data set [1] (FIG. 2A), the “dose- and time-dependent decrease of quinolone production, in words” value is recorded as “same trend of inhibition, albeit again with lower potency”. Also, the inhibition at 1500 µM in data set [1] (setting [2]) was 67%; in data set [1] (setting [3]), 77%. Also, the figures for the inhibition at 1000 µM in data set [1] (setting [4]) and in data set [1] (setting [5]) were 47% and 40%, respectively. For the same compound, the “toxicity in words, CellTiter Glo, HepG2” value in the data set with HepG2 cells was “significant toxicity in the tested range”. Further, the IC50 in the data set on HepG2 cells came to 3.1 µM; in the data set on MRC5 cells (setting [6]), 21.5 µM; in the data set with MRC5 cells (setting [7]) it was 25.5 µM. In addition, in the data set with MRC5 cells, the “toxicity in words, imaging, MRC5” value is given as “significant toxicity in the tested range”.

On to `Nc1ccccc1C(=O)NS(=O)(=O)NC[C@H]1O[C@@H](n2cnc3c(N)ncnc32)[C@H](O)[C@@H]1O` [anthranilyl-AMSN, Anthranilyl-AMSN], for which the inhibition at 1500 µM worked out at 90% in data set [1] (setting [2]) and 92% in data set [1] (setting [3]). The inhibition at 1000 µM in data set [1] (setting [4]) and in data set [1] (setting [5]) was 84% throughout. Further, in the data set on HepG2 cells, the “toxicity in words, CellTiter Glo, HepG2” value is on record as “significant toxicity in the tested range”. For the same compound, the values for the IC50 in the data set with HepG2 cells, in the data set on MRC5 cells (setting [6]) and with MRC5 cells (setting [7]) were 19.2 µM, 58.8 µM and 74.3 µM, respectively. In addition, in the data set on MRC5 cells, the “toxicity in words, imaging, MRC5” value is recorded as “significant toxicity in the tested range”.
